The values that follow come from patent publication US11285226B2, “Aryl ethene derivative and pharmaceutical composition containing same as active ingredient” (priority 2016, dated 2022).

Data set [1] is classed as in vitro ADME, human. The following applies: 1 μM, 30 minutes, 37° C.
Protocol: 2) Microsomal Stability Evaluation
(§2) Four liver microsomes (Human, Dog, Rat, Mouse 0.5 mg/ml) with a 0.1 M phosphate buffer solution (pH 7.4), and the arylethene derivative of the present invention were added to a concentration of 1 μM, culturing was performed at 37° C. for 5 minutes in advance, a NADPH regeneration system solution was added thereto, and culturing was performed at 37° C. for 30 minutes. Thereafter, in order to complete the reaction, an acetonitrile solution containing an internal standard material (chlorpropamide) was added thereto, centrifugation (14,000 rpm, 4° C.) was performed for 5 minutes, and a supernatant was injected into a LC-MS/MS system to analyze the substrate drug, thereby evaluating metabolism stability to the arylethene derivative of the present invention.
The format of data set [2] is in vitro ADME, dog. The following applies: 1 μM, 30 minutes, 37° C.
Protocol: 2) Microsomal Stability Evaluation
as §2
A further data set has as its target CYP2C9 (Homo sapiens (Human), UniProt P11712). As to the kind of experiment: Cytochrome P450 activity inhibition, CYP2C9. The following applies: 10 μM, human liver microsomes. Format: in vitro ADME. The text has this: (§1) 1) Cytochrome P450 (CYP450) Activity Inhibition Evaluation
On the technique in general: Liver microsomes are vesicles of endoplasmic reticulum, rich in cytochrome P450 enzymes.

A further data set has as its target ERR alpha LBD (Homo sapiens (Human), UniProt P11474). The following applies: read-out: Binding Assay, IC50 ERRα.
The target of the next data set is CYP3A4 (Homo sapiens (Human), UniProt P08684). The data set can be described thus: Cytochrome P450 activity inhibition, CYP3A4. The following applies: 10 μM, human liver microsomes. Format: in vitro ADME.
Sequence of CYP3A4 (P08684 whole entry): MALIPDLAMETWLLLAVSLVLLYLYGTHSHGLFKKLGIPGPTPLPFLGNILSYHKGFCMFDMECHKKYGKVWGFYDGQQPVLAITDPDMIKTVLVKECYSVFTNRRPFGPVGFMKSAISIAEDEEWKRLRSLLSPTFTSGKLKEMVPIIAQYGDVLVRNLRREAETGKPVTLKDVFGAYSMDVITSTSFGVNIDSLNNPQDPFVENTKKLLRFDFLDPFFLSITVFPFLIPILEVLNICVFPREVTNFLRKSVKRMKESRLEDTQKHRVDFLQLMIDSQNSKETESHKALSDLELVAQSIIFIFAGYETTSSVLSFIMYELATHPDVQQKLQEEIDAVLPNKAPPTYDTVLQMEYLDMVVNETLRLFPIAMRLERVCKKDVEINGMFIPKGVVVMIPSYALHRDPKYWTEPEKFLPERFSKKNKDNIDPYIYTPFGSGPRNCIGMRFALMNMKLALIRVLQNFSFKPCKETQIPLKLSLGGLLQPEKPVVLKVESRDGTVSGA
Another data set has as its target CYP1A2 (Homo sapiens (Human), UniProt P05177). As to the kind of experiment: Cytochrome P450 activity inhibition, CYP1A2. Format: in vitro ADME. The following applies: 10 μM, human liver microsomes.
Text: as §1

A further data set has as its target CYP2C19 (Homo sapiens (Human), UniProt P33261). The data set can be described thus: Cytochrome P450 activity inhibition, CYP2C19. Format: in vitro ADME. The following applies: 10 μM, human liver microsomes.
Text: as §1

The target in the next data set is CYP2D6 (Homo sapiens (Human), UniProt P10635). As to the kind of experiment: Cytochrome P450 activity inhibition, CYP2D6. Format: in vitro ADME. The following applies: 10 μM, human liver microsomes.
Sequence of CYP2D6 (P10635 whole entry): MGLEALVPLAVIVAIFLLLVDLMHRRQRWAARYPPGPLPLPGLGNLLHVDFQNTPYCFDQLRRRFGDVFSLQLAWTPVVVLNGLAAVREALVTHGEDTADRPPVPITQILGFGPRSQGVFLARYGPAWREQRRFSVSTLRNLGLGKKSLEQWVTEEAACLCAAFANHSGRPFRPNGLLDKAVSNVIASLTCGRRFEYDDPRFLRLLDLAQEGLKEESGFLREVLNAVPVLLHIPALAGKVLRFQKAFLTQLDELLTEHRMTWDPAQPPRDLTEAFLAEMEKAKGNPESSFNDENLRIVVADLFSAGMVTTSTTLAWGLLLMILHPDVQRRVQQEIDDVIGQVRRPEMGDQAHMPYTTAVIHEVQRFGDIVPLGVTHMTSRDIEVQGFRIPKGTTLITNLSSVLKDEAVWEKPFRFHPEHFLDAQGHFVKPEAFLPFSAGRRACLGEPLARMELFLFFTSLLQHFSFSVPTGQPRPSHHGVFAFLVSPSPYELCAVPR
Text: as §1

The format of data set [3] is in vivo. The following applies: rat; for BA: PO 10 mg/kg vs IV 1 mg/kg.
Protocol: An oral administration group fasts the day before.
Blood of each animal is collected at 0 hour.
Into a tail vein of an intravenous administration group (IV), a drug is injected at a dose of 1 mg/kg (syringe).
To an oral administration group (PO), a drug is orally administered at a dose of 10 mg/kg (oral zondec)
After administration, blood of the intravenous administration group was collected through a jugular vein 8 times at 0.08, 0.25, 0.5, 1, 2, 4, 6, and 8 hours. One collected blood amount is 400 to 500 ul.
After administration, blood of the oral administration group was collected through a jugular vein 6 times at 0.25, 0.5, 1, 4, 6 and 8 hours. One collected blood amount is 400 to 500 ul.
Supernatant plasma is collected by a centrifuge.
The supernatant plasma was injected into a LC-MS/MS system and the drug is analyzed.
The subject of a further data set is ERRγ. The format is cell-based. The following applies: for Functional Assay, Cpds/Ref 5182: activity relative to reference compound GSK5182; for Functional Assay at 10 μM (% of control), Cpds: AD293, 24 hours.
The format of data set [4] is in vitro ADME, rat. The following applies: 1 μM, 30 minutes, 37° C.
Protocol: 2) Microsomal Stability Evaluation
as §2
Data set [5] has as its target ER alpha ligand-binding domain (LBD) (Homo sapiens (Human), UniProt P03372). The following applies: beta-estradiol 4 nM as agonist; read-out: Binding Assay, IC50 ERα.
Protocol: (§3) The arylethene derivative of the present invention was sequentially added to a 384 well plate from a concentration of 10 μM to a final concentration of two-fold dilution. […] After all reagents were added, a reaction was carried out with gentle shaking at 20° C. for 1 hour, and after the reaction, a binding activity was measured by a TR-FRET method.
The format of data set [6] is in vitro ADME. The following applies: PBS pH 7.4, 25° C., 5 hours.
Protocol: 3) Parallel Artificial Membrane Permeability Assay (PAMPA) Evaluation
PAMPA is a method which has been developed for testing cell membrane permeability of a material in a test tube, and has been performed using a lipid tri-layer PVDF membrane available from Corning Gentest (NY, US), the used reagents were all purchased from Sigma (MO, US). First, a test material is diluted in PBS (pH 7.4) to a final concentration of 10 mM, 300 mL of the solution is added to the bottom well of a 96-transwell equipped with a PVDF membrane, and 200 mL of PBS is added to the upper well. Then, a plate is reacted at 25° C. for 5 hours, 20 mL of the solution in each well is transferred to a new container, and 80 mL of acetonitrile containing an internal standard material (4 mM chloropropamide) is added thereto. A concentration of the material in the solution is analyzed using LC-MS/MS (ThermoFisher Scientific, MO, US), and the transmittance of the material is calculated according to the equation reported in the reference document. • Reference document: A novel design of artificial membrane for improving the PAMPA model.
The format of data set [7] is in vitro ADME, mouse. The following applies: 1 μM, 30 minutes, 37° C.
Protocol: 2) Microsomal Stability Evaluation
as §2
The test system of another data set is pERK1/2 in CAL62 cells. As to the kind of experiment: Western blot, phosphorylated ERK1/2 (MAP kinase). The format is cell-based. The following applies: selective MEK inhibitor.
For the next data set, the system named is ATC mouse tumor model. The following applies: cited from earlier work.
The next data set relates to CAL-62 cells. As to the kind of experiment: 125I uptake assay in anaplastic thyroid cancer cells. Format: cell-based.

Where two headings read alike, the source gives them in different places. Bounds are passed on as bounds.

Sequence of CYP2C19 (P33261 whole entry): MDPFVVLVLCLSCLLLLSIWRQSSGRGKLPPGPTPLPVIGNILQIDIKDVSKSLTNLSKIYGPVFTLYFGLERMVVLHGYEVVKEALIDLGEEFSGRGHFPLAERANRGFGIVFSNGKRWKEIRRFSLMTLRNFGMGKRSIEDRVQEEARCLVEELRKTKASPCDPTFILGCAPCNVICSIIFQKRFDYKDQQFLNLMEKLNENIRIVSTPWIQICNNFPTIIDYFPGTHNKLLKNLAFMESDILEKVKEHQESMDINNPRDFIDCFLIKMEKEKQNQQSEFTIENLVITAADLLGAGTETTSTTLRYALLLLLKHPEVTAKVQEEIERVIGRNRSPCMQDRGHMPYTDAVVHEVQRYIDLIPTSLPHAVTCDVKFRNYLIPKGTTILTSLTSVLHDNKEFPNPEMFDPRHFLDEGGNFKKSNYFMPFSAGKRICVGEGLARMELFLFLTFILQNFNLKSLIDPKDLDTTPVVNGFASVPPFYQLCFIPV
Sequence of CYP2C9 (P11712 whole entry): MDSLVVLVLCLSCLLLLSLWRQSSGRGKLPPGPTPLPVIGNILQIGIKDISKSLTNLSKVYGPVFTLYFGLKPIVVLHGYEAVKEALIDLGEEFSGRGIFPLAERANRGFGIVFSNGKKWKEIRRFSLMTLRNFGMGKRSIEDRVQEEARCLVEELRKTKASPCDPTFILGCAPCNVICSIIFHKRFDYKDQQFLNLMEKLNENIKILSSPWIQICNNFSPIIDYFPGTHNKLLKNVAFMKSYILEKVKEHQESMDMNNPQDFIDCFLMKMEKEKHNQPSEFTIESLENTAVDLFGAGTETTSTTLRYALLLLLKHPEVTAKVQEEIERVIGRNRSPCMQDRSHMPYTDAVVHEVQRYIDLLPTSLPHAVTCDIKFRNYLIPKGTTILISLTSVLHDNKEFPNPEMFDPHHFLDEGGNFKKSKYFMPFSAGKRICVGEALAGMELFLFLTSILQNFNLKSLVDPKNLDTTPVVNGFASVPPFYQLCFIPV
Sequence of CYP1A2 (P05177 whole entry): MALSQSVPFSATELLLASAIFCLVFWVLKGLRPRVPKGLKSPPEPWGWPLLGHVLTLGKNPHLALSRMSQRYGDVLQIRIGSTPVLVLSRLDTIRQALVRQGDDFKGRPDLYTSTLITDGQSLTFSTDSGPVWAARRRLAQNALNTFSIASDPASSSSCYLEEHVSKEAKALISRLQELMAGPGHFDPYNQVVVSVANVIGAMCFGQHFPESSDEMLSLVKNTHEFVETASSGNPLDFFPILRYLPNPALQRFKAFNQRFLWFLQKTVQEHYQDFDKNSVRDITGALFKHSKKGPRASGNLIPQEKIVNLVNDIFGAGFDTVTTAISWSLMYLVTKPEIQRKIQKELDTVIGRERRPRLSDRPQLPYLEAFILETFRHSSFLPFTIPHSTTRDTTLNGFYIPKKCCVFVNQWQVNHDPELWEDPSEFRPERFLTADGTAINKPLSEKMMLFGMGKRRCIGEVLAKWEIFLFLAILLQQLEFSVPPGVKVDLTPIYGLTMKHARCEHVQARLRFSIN
Sequence of ERR alpha LBD (P11474 193-421, species assumed): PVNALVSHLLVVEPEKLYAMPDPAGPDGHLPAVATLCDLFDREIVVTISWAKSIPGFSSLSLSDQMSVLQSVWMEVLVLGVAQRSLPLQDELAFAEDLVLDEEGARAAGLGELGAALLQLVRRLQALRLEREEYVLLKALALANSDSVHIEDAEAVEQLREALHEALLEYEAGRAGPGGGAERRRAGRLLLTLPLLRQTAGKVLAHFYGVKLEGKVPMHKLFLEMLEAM
Sequence of ER alpha ligand-binding domain (LBD) (P03372 whole entry, looked up, the tested form may be a part): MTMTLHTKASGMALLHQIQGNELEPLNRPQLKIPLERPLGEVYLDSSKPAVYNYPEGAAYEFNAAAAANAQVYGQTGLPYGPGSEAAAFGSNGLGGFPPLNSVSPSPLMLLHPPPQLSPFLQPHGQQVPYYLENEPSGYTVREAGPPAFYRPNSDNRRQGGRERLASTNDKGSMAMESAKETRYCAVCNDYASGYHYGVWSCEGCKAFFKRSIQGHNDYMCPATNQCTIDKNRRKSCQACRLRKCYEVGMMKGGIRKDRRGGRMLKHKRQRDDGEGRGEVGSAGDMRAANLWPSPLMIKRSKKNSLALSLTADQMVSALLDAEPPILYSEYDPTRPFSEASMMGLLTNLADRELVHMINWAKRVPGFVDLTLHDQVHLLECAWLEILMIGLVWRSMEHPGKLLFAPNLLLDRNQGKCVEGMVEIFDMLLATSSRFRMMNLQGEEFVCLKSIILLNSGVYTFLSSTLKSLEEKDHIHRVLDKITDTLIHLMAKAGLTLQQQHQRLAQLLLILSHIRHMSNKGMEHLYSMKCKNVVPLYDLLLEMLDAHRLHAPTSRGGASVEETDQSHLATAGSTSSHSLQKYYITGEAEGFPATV
Protocol for CYP3A4: Thereafter, in order to complete the reaction, an acetonitrile solution containing an internal standard material (Terfenadine) was added thereto, centrifugation (14,000 rpm, 4° C.) was performed for 5 minutes, and a supernatant was injected into a LC-MS/MS system to analyze the metabolites of the substrate drug, thereby evaluating drug metabolism enzyme inhibition by the arylethene derivative of the present invention.
Protocol for ERR alpha LBD: as §3
Protocol for ERRγ: AD293 was cultured in a 24-well plate for 24 hours, using a DMEM High glucose culture medium (Hyclone, USA) to which 0.5% FBS was added at a concentration of 9×10^4/well. The culture medium was replaced with a DMEM High glucose culture medium to which 10% FBS was added, treatment was performed with a mixture of a TransIT-LT1 transfection reagent (Minis, USA) and pCMX-Gal4-ERRγ, pFR-luciferase reporter plasmid, pCMV-β-gal, and culturing was performed for 24 hours. Thereafter, a luciferase activity assay and a β-gal assay were performed, respectively, with a lysate obtained after treatment with the arylethene derivative of the present invention for 24 hours. All results were derived from three or more independent repetitive experiments.

As to `CC(C)N1CCC(c2ccc(/C(=C(/CCCO)c3ccccc3)c3cccc(O)c3)cc2)C1` (racemic) [Compound 22u], in data set [1], the “MS (Microsomal Stability) (%) human” value is 40.0%. In [2], the “MS (Microsomal Stability) (%) dog” value is 10.0%.
The term IC50 denotes the concentration at which inhibition is half-maximal. In the case of `CN1CCC[C@H]1COc1ccc(/C(=C(/CCCO)c2ccccc2)c2ccc(O)cc2)cc1` [Compound 6h], the “CYP inhibition (% of control) 2C9” value at CYP2C9 is 62.8 % of control. Moreover, the IC50 on ERR alpha LBD is over 10 µM. Besides, the “CYP inhibition (% of control) 3A4” value on CYP3A4 is 75.4 % of control. In addition, at CYP1A2, the “CYP inhibition (% of control) 1A2” value is 103 % of control. The “CYP inhibition (% of control) 2C19” value at CYP2C19 is given as 83.2 % of control. Besides, on CYP2D6, the “CYP inhibition (% of control) 2D6” value is 90.7 % of control.
For the compound `Cc1ccc(/C(=C(\CCCO)c2ccccc2)c2ccc(N3CCN(C(C)C)CC3)cc2)cc1` [Compound 18b], the BA in data set [3] is 8.7%. Also, in the data set on ERRγ, the “Functional Assay, Cpds/Ref 5182” value worked out at 0.78. Besides, at CYP3A4, the “CYP inhibition (% of control) 3A4” value is 53 % of control. For the same compound, in data set [4], the “MS (Microsomal Stability) (%) rat” value was 40.0%.
What is called Vss is a proportionality between amount in the body and measured concentration, not a real space. High values mean wide distribution into tissue, low ones little distribution into tissue. As usually defined, the Cmax is the highest concentration seen after dosing. One may read the Tmax as the time at which the peak concentration occurs. As to `CN1CCN(c2ccc(/C(=C(/CCCO)c3ccccc3)c3ccc(Br)cc3)cc2)CC1` [Compound 18e], in data set [5], the IC50 is over 10 µM. In [3] (IV 1 mg/kg), this compound displayed an AUCINF of 0.06 μMh, an AUCall of 0.06 μMh, a Vss of 39.1 L/kg and a t1/2 of 0.8 h. Further, in data set [3] (PO 10 mg/kg), the AUCINF was found to be 0.09 μMh, the AUCall was determined as 0.07 μMh, the Cmax was 10 nM and the Tmax came to 2.8 h. Besides, in [3], the BA was 11.5%. Moreover, in the data set with ERRγ, the “Functional Assay at 10 μM (% of control), Cpds” value is 2.6 % of control and the “Functional Assay, Cpds/Ref 5182” value is given as 0.89. Besides, the “CYP inhibition (% of control) 2C9” value at CYP2C9 was 91.3 % of control. Besides, at ERR alpha LBD, the IC50 was over 10 µM. Further, the “CYP inhibition (% of control) 3A4” value at CYP3A4 is listed as 84 % of control. For the same compound, the “CYP inhibition (% of control) 1A2” value on CYP1A2 is reported as >100 % of control. The “Permeability Pampa” value in [6] is 1.11 10^−6 cm/s. For the same compound, at CYP2C19, the “CYP inhibition (% of control) 2C19” value is recorded as 84.6 % of control. For the same compound, the “CYP inhibition (% of control) 2D6” value at CYP2D6 is on record as >100 % of control.
On to `CCN1CCN(c2ccc(/C(=C(/CCCO)c3ccccc3)c3ccc(C)cc3)cc2)CC1` [Compound 18j], for which the “CYP inhibition (% of control) 2C9” value at CYP2C9 is 87 % of control. The “MS (Microsomal Stability) (%) dog” value in data set [2] was found to be 58.0%. Besides, the “CYP inhibition (% of control) 1A2” value at CYP1A2 is >100 % of control. On CYP2C19, the “CYP inhibition (% of control) 2C19” value is on record as 74 % of control.
On to `Cc1ccc(/C(=C(\CCCO)c2ccccc2)c2ccc(N3CCNCC3)cc2)cc1` [Compound 20b], for which the “Functional Assay, Cpds/Ref 5182” value in the data set with ERRγ came to 0.88. The “MS (Microsomal Stability) (%) human” value in data set [1] was found to be 44%. The “MS (Microsomal Stability) (%) dog” value in [2] is given as 58%.
As to `Cc1ccc(/C(=C(\CCCO)c2ccccc2)c2ccc(C3CNC3)cc2)cc1` [Compound 20d], in the data set on ERRγ, the “Functional Assay, Cpds/Ref 5182” value worked out at 0.81. In addition, in data set [1], the “MS (Microsomal Stability) (%) human” value amounted to 83%. Also, the “MS (Microsomal Stability) (%) rat” value in data set [4] is on record as 54%.
For `Cc1ccc(/C(=C(\CCCO)c2ccccc2)c2ccc(C3CCN(C)CC3)cc2)cc1` [Compound 22f], in data set [1], the “MS (Microsomal Stability) (%) human” value was 97.0%. Also, the “MS (Microsomal Stability) (%) rat” value in [4] is listed as 80.0%.
`CC(C)N1CCC(c2ccc(/C(=C(/CCCO)c3ccccc3)c3ccc(O)cc3)cc2)CC1` [Compound 22k]: in the data set with ERRγ, the “Functional Assay at 10 μM (% of control), Cpds” value is 0.77 % of control and the “Functional Assay, Cpds/Ref 5182” value worked out at 0.83. The “CYP inhibition (% of control) 2C9” value at CYP2C9 was 97 % of control. On CYP1A2, the “CYP inhibition (% of control) 1A2” value is listed as >100 % of control. In addition, the “CYP inhibition (% of control) 2C19” value at CYP2C19 was >100 % of control. The “MS (Microsomal Stability) (%) rat” value in [4] came to 69.0%.
Take `CC(C)N1CCC(c2ccc(/C(=C(/CCCO)c3ccccc3)c3cccc(O)c3)cc2)CC1` [Compound 22m]: the “MS (Microsomal Stability) (%) dog” value in [2] is 55.0%. At CYP1A2, the “CYP inhibition (% of control) 1A2” value is 97 % of control. Moreover, the “CYP inhibition (% of control) 2C19” value at CYP2C19 is listed as >100 % of control.
`OCCC/C(=C(\c1ccc(O)cc1)c1ccc(N2CCN(C3CCCC3)CC2)cc1)c1ccccc1` [Compound 22n]: the “MS (Microsomal Stability) (%) dog” value in [2] came to 72.0%. Further, on CYP1A2, the “CYP inhibition (% of control) 1A2” value was 99 % of control. For the same compound, the “CYP inhibition (% of control) 2C19” value at CYP2C19 is on record as 83 % of control.
With `Nc1ccc(/C(=C(\CCCO)c2ccccc2)c2ccc(C3CCN(C4CC4)CC3)cc2)cc1` [Compound 26d], the “CYP inhibition (% of control) 1A2” value at CYP1A2 is >100 % of control. Further, the “Permeability Pampa” value in [6] is reported as 1.04 10^−6 cm/s. For the same compound, the “CYP inhibition (% of control) 2C19” value at CYP2C19 is recorded as >100 % of control.
As to `CC(C)N1CCN(c2ccc(/C(=C(/CCCO)c3ccccc3)c3ccc(NS(C)(=O)=O)cc3)cc2)CC1` [Compound 27a, (E)-N-(4-(5-hydroxy-1-(4-(4-isopropylpiperazin-1-yl)phenyl)-2-phenylpent-1-en-1-yl)phenyl)methanesulfonamide], in data set [4], the “MS (Microsomal Stability) (%) rat” value turned out to be 65.0%.
Consider `OCCC/C(=C(\c1ccc(O)cc1)c1ccc(OCCN2C[C@H]3C[C@H]3[C@H]2CO)cc1)c1ccccc1` [Compound 38d], for which the “Functional Assay, Cpds/Ref 5182” value in the data set with ERRγ is 0.77. In addition, at CYP2C9, the “CYP inhibition (% of control) 2C9” value is 55.3 % of control. The IC50 at ERR alpha LBD was over 10 µM. For the same compound, on CYP3A4, the “CYP inhibition (% of control) 3A4” value is given as 57.6 % of control. The “MS (Microsomal Stability) (%) human” value in data set [1] is 6.9%. The “CYP inhibition (% of control) 1A2” value at CYP1A2 is on record as 79.2 % of control. On CYP2C19, the “CYP inhibition (% of control) 2C19” value was 58.8 % of control. In addition, the “CYP inhibition (% of control) 2D6” value on CYP2D6 is given as 54.3 % of control. In addition, the “MS (Microsomal Stability) (%) mouse” value in [7] came to 11.8%. Also, the “MS (Microsomal Stability) (%) rat” value in data set [4] came out at 11.7%.
With `OCCC/C(=C(\c1ccc(O)cc1)c1ccc(OCCN2C[C@H]3CNC[C@H]3C2)cc1)c1ccccc1` [Compound 40, 4-((Z)-1-(4-(2-((3aR,6aS)-hexahydropyrrolo[3,4-c]pyrrol-2(1H)-yl)ethoxy)phenyl)-5-hydroxy-2-phenylpent-1-en-1-yl)phenol], the “Functional Assay, Cpds/Ref 5182” value in the data set with ERRγ is on record as 0.96. For the same compound, the “MS (Microsomal Stability) (%) rat” value in data set [4] is given as 72.0%.
As for `C[Si](C)(CN1CCCCC1)c1ccc(/C(=C(/CCCO)c2ccccc2)c2ccc(O)cc2)cc1` [Compound 42b], in data set [6], the “Permeability Pampa” value was 0.1 10^−6 cm/s.
In the case of `N#CC(=C(/N)Sc1ccccc1N)/C(C#N)=C(\N)Sc1ccccc1N` [Compound U0126, U0126], in the data set on pERK1/2 in CAL62 cells, the “inhibition of the relative increase of phosphorylated ERK1 and ERK2 by compound 18a” value is reported as “completely inhibited”.
`CN(C)CCOc1ccc(/C(=C(/CCCO)c2ccccc2)c2ccc(O)cc2)cc1` [GSK5182, reference compound] registered a BA in data set [3] of 8.4%. Further, the “CYP inhibition (% of control) 2C9” value at CYP2C9 is recorded as 72.9 % of control. In addition, on CYP3A4, the “CYP inhibition (% of control) 3A4” value is listed as 83 % of control. On CYP1A2, the “CYP inhibition (% of control) 1A2” value is given as 84.6 % of control. In addition, the “CYP inhibition (% of control) 2C19” value on CYP2C19 is reported as 78.2 % of control. Further, the “CYP inhibition (% of control) 2D6” value on CYP2D6 is listed as 82.3 % of control. The “radioiodine uptake in the tumor” value in the data set with ATC mouse tumor model was “not increased”.
Regarding `[K+].[O-][Cl+3]([O-])([O-])[O-]` [KClO4, reference compound], in the data set with CAL-62 cells (co-incubated with compound 18a-treated CAL62 cells), the “block of radioactive iodine uptake increased in compound 18a-treated cells” value is listed as “completely blocks”.
Regarding `COc1cccc(-c2cc(=O)c3ccccc3o2)c1N` [PD98059, reference compound], the “inhibition of the radioactive iodine uptake increase by compound 18a” value with CAL-62 cells (selective MEK inhibitor, pre-incubated 30 minutes) was “completely inhibited”. Moreover, in the data set on pERK1/2 in CAL62 cells, the “inhibition of the relative increase of phosphorylated ERK1 and ERK2 by compound 18a” value is recorded as “completely inhibited”.
